How the values were obtained:
RGS10 KD BV2 cells = test: TNF-α production after antioxidant treatment, RGS10 KD BV2 microglia (Meso-Scale Discovery immunoassay); format: cell-based, mouse; conditions: 5 mM, 18 hours
Protocol: (§1) BV2 cells are a type of microglial cell line that was originally derived from a C57/B16 mouse. BV2 cells were immortalized by v-raf/v-myc J2 retrovirus.
(§2) The role of RGS10 in regulating a response to inflammatory and metabolic stresses was assessed in microglia cells. BV2 cells were grown in culture and RGS10 expression in BV2 cells was diminished by CRISPR/Cas9 RGS10 knockout methods. Control cells were obtained from CRISPR/Cas9 controls.
(§3) Control and RGS10 KD BV2 cells were allocated into 2 test conditions. The 2 test conditions were 1) Control (no treatment) 2) N-acetylcysteine (NAC) treatment (5 mM). NAC is an antioxidant precursor. NAC is a precursor of L-cysteine that results in biosynthesis of glutathione. Glutathione is a powerful, naturally occurring antioxidant. NAC also acts directly as a scavenger of free radicals, especially oxygen radicals, illustrating extensive antioxidant properties of NAC treatment. NAC treatment in cells leads to a reduction in reactive oxidative species (ROS).
(§4) Cultured cells were subjected to test conditions for 18 hours and then assayed for production of TNF-α using an immunoassay (Meso-Scale Discovery). Values for TNF-α production in Control and RGS10 KD BV2 cells under Condition 1) were scaled to value of 1.0. Values for TNF-α production after NAC treatment were represented as a % of change relative to Condition 1) levels and were graphed in FIG. 3.

Control BV2 cells = test: TNF-α production after antioxidant treatment, Control BV2 microglia (Meso-Scale Discovery immunoassay); format: cell-based, mouse; conditions: 5 mM, 18 hours
Protocol: as §1, §2, §3, §4

Q: Which results are given for `CC(=O)N[C@@H](CS)C(=O)O` [NAC, N-acetylcysteine]?
A: TNF-α production after treatment vs no treatment (RGS10 KD BV2 cells): statistically significant reduction in level of TNF-α production; TNF-α production after treatment vs no treatment (Control BV2 cells): statistically significant reduction in level of TNF-α production

— patent US20260007774A1, “AAV-MEDIATED DELIVERY OF RGS10 TO MICROGLIA” (NEURONITY THERAPEUTICS, INC., priority 2022, published 2026)
